Experiment [1] has as its system HT1080 s.c. tumor xenografts. It counts as in vivo. As to conditions: 50 mg/kg i.p. every other day, 6 doses. How it is done: Female 4-6 week-old SCID (B6.CB17) mice supplied by Stanford University Animal Facility were housed in the same facility (American Association of Laboratory Animal Care-approved) with 12 hour light cycles. Food and water were provided ad libitum. All experiments were approved by the institutional care and use committee. The potential toxicities of irestatin 9389 were examined in SCID mice injected i.p. once daily over 4 consecutive days with increasing doses of irestatin 9389 or vehicle control. […] For xenografts, 2×10^6 HT1080 fibrosarcoma cells were resuspended in 50-75 μl PBS and injected s.c. in the dorsal flanks of host mice. When the implanted tumors reached a mean volume of ˜150 mm^3, mice were randomly assigned into different treatment groups. Mice were dosed by i.p. bolus injection with either vehicle (50% DMSO, 20% cremophor EL, 30% ethanol) or irestatin 9389 (50 mg/kg). Tumors (6-8 per group) were measured every 2-4 days with calipers. Tumor volume was calculated using the formula [(W^2×L) 0.52] where W=width and L=length.
A. Irestatin 9389 impairs IREla activity in implanted tumor xenografts. […] Tumor volumes were calculated based on caliper measurements taken every 3-5 days. Data points represent the mean volume calculated from at least 7 tumors per group, with SEM shown in one direction. […]

Experiment [2] relates to ATF6. Nature of the experiment: ATF6 cleavage in hypoxic HT1080 cells (Western blot). The note with it: 2.5 μM, hypoxia. Type of experiment: cell-based, human. How it is done:
A. Effect of irestatin 9389 on PERK and ATF6 pathways. HT1080 cells were treated with vehicle alone (lanes 1-4) or 2.5 μM irestatin 9389 (lanes 5-8) and cultured under aerobic conditions for 18 hours (N) or shifted to hypoxia for the indicated times. Protein lysates were analyzed by Western blot analysis using antisera specific for ATF6 (top), CHOP/GADD153 (middle) or actin (bottom). Arrow indicates the cleaved, transcriptionally active form of ATF6. B. Cleavage of caspase-3 in irestatin-treated cells under hypoxia. HT1080 cells were cultured in normoxia (N) or under hypoxia for 36 hours (H 36) in absence or presence of irestatin 9389 (2.5 μM). Arrows indicate proteolytically cleaved caspase-3. C. Colony formation assay. HT1080 cells were treated as in B under normoxia (N) or hypoxia for 48 hours (H 48). Cells were harvested, counted, and allowed to grow under normal culture conditions for 11-12 days. Colonies were visualized with crystal violet staining. D. Quantification of clonogenic survival assay. Values represent the mean+/−SEM from at least 4 independent experiments. E. TUNEL staining of cells treated as in C. F. Quantification of TUNEL-positive cells. Values represent the mean+/−SEM from at least 3 experiments. […] Cells were harvested at the indicated times and counted by hemocytometer. Values represent the mean calculated from triplicate experiments +/−SEM. […]
For orientation: In western blotting, separated proteins are transferred to a membrane and probed.

The source of these data is patent US20090291857A1, “METHODS TO IDENTIFY INHIBITORS OF THE UNFOLDED PROTEIN RESPONSE” (THE BOARD OF TRUSTEES OF THE LELAND STANFORD JUNIOR …, priority 2006, published 2009).

Molecules are shown by their SMILES.

Take `Cc1csc(NC(=O)CSc2nc3c(c(C(F)(F)F)c2C#N)CCC3)n1` [Compound 9389]: the antitumor effect entry in experiment [1] is “significant cytostatic antitumor effects”. For the same compound, the “proteolytic cleavage of ATF6 into active 50 kDa form” value in experiment [2] is on record as “significantly increased”.
